# Reference: US7683077B2, “Piperidine derivative” (Ajinomoto Co., Inc., priority 2003, dated 2010)
# Target: T1, Human 5-HT7a receptor (Homo sapiens, UniProt P34969)
# T1 construct: host or cells: CHO-K1 (h5HT7-C1 cells)
# Assay: Receptor binding assay (RBA) using 5HT-7 expression cells
# Conditions: not given
# Protocol: Receptor Binding Assay (RBA) Using 5HT-7 Expression Cells
# Human 5-HT7a receptor expression CHO—K1 cells (Euroscreen; h5HT7-C1 cells, No. ES-317-C) were cultured in an incubator (CO2: 5%) at 37° C., using Ham's F-12 culture medium containing 400 μg/ml G418, 100 U/ml penicillin, 100 μg/ml streptomycin, and 10% fetal bovine serum. After removal of the culture medium, the cells were washed with phosphate-buffered saline (PBS(−)) free of Ca^2+ and Mg^2+, and then peeled away from a petri dish using HMEE buffer (20 mM HEPES-KOH (pH7.4), 1 mM EDTA, 1 mM EGTA, 2 mM MgCl2). The cells thus collected were homogenized on ice using a Teflon homogenizer, centrifuged at 1,500×g for 5 minutes at 4° C., and the resultant supernatant liquid was then recovered. The supernatant liquid was further centrifuged at 12,000×g for 30 minutes at 4° C. The resultant precipitate was suspended in a HMEE buffer and the resultant suspension was dispensed and flash-frozen in liquid nitrogen. Thus, the frozen product was maintained at −80° C. and melted at room temperature when used in practice. In a 96-well polystyrene round-bottom plate (Falcon, No. 351190), a membrane preparation, the test compound, and 2-[^125I]-(+)-iodo-lysergic acid diethylamide (Perkin Elmer Life Science, No. NEX199) were reacted at room temperature for 3 hours in 50 μL of a binding buffer (50 mM HEPES-NaOH (pH7.4), 1 mM CaCl2, 5 mM MgCl2, 0.5% BSA) in each well. After completion of the reaction, the mixture was trapped by suction into a 96-well GF/B Unifilter plate (Perkin Elmer Life Science, No. 6005177), 50 μL of 0.05% polyethyleneimine being previously added to each well. Each well of the above-mentioned Unifilter plate was washed with about 200 μL of a washing buffer (50 mM HEPES-NaOH (pH7.4), 1 mM CaCl2, 5 mM MgCl2, 0.5 M NaCl, 0.05% Tween-20) three times, and dried overnight. Then, 30 μL of Microscint (Packard, No. NR6013611) was added to each well. The amount of bound 2-[^125I]-(+)-iodo-lysergic acid diethylamide was determined using Top Counter (Packard). The count obtained when 100 μM of crozapine was used as the test compound was fixed at 0%, while the count obtained when no compound was added was fixed at 100%. The binding ratios of 2-[^125I]-(+)-iodo-lysergic acid diethylamide obtained at varied concentrations of the compound were expressed by percentage (%), and the relationship between the concentration of each compound and the binding ratio (%) was approximated to a sigmoid curve. A concentration of the compound corresponding to the binding ratio 50% of 2-[^125I]-(+)-iodo-lysergic acid diethylamide was defined as the value of IC50.
# T1 sequence (P34969 1-445 isoform P34969-2): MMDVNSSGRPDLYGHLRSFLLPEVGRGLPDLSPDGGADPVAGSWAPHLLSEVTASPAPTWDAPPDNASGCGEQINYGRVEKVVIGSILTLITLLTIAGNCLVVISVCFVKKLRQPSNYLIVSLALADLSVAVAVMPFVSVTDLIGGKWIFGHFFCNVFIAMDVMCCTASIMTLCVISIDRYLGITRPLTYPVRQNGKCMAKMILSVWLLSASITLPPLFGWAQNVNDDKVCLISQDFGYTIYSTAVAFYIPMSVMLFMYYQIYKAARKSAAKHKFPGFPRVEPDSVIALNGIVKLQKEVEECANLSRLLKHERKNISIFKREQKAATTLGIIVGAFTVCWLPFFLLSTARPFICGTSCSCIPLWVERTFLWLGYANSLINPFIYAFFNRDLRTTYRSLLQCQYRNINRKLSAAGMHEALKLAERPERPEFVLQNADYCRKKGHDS
row,Compound,IC50
1,COc1ccccc1C(=C1CCN(C)CC1)c1ccc(Cl)c(Cl)c1 [Example 54],31.6 nM
2,CCN1CCC(=C(c2cccc(Cl)c2)c2cc(OC)ccc2OC)CC1 [Example 58],15.8 nM

# Same assay, conditions: displacement of 2-[125I]-(+)-iodo-lysergic acid diethylamide, membranes of human 5-HT7a CHO-K1 cells; read-out: pIC50 (converted)
row,Compound,IC50
1,COc1ccc(OC)c(C(=C2CCNCC2)c2cccc(Cl)c2)c1 [Example 4],20 nM
2,CCCN1CCC(=C(c2cccc(Cl)c2)c2ccccc2OC)CC1 [Example 7],31.6 nM
3,CCCCN1CCC(=C(c2cccc(Cl)c2)c2cc(OC)ccc2OC)CC1 [Example 60],100 nM

# Now from value to compound:
row,IC50,Compound
1,39.8 nM,COc1ccccc1C(=C1CCN(C)CC1)c1cccc(Cl)c1 [Example 1]
2,100 nM,COc1ccccc1C(=C1CCN(CCCNC(=O)OC(C)(C)C)CC1)c1cccc(Cl)c1 [Example 36]
3,10 nM,COc1ccccc1C(=C1CCN(CCNS(=O)(=O)c2cc(Cl)ccc2Cl)CC1)c1cccc(Cl)c1 [Example 49]
4,39.8 nM,COc1ccccc1C(=C1CCN(C)CC1)c1ccc(Cl)s1 [Example 55]
5,39.8 nM,COc1ccccc1C(=C1CCN(C)CC1)c1ccc(C)s1 [Example 56]
6,31.6 nM,COc1ccc(C)cc1C(=C1CCN(C)CC1)c1cccc(Cl)c1 [Example 57]

# Target: T2, Human 5HT-7 (Homo sapiens, UniProt P34969)
# T2 construct: host or cells: CHO-K1 (h5HT7-C2 cells)
# Assay: Evaluation of 5HT-7 agonist activity using 5HT-7 expression cells (cAMP)
# Type: cell-based
# Conditions: cAMP in h5HT7-C2 CHO-K1 cells; 10 μM serotonin = 100%
# Protocol: Evaluation of 5HT-7 Agonist Activity Using 5HT-7 Expression Cells
# Then, the cAMP concentration was determined using a cAMP EIA kit (RPN225, Amersham) by the method in conformity of the attached protocol (Protocol 2. Acetylation EIA Procedure). […] The cAMP concentrations obtained with varied concentrations of the compound were expressed by percentage (%), and the relationship between the concentration of each compound and the cAMP (%) was approximated to a sigmoid curve. A concentration of the compound corresponding to the cAMP value that is a half the maximum value (Emax) on the approximated sigmoid curve was defined as the value of EC50.
# T2 sequence (P34969 1-445 isoform P34969-2): as above
row,Compound,EC50
1,COc1ccc(OC)c(C(=C2CCNCC2)c2cccc(Cl)c2)c1 [Example 4],87 nM
